Experimental data as given in US8404733B2, “Laser enhanced amino acid blend and use of same to regenerate active myocardial tissue” (priority 2010, dated 2013).

Tested on: murine macrophages
Test: TNF-alpha production (ELISA) by Echinacea activated murine macrophages
Type: cell-based
Settings: 24 hours; amino acid samples 20 mg/ml together with Echinacea; LPS 1 ng/ml; Negative Control 215 +/- 13.7
From the text: The rationale for the use of this process of laser enhancement is the result of an in vitro study using a similar short wavelength laser treatment. In this study, murine macrophages that were activated with Echinacea to simulate an irritated immune system were then fed the above formula of amino acids in the untreated and laser treated conditions. […] The specific details of the in vitro study are as follows. 20 grams of the amino acid blend as detailed above was used for each of the control and treated amino acid samples. The Untreated Sample was not treated. The Treated Sample was exposed to laser radiation from a 458 nm pumped argon gas laser with a primary power of 16.5 mW adjusted through the optics to a power level of 5.1 mW The duration of treatment of the sample was 30 seconds. The following bioassays were performed. A standardized Echinacea sample alone or with 20 mg/ml of the Untreated or Treated Sample amino acids were incubated in tissue culture media of triplicate wells of murine macrophages. […] The results were as follows and are expressed as the mean TNF-alpha production plus or minus the statistical standard deviation (SD): Using a Student's 2-tailed t-test, the Echinacea Stimulated Sample was compared to the results of Echinacea plus the Untreated Amino Acid Sample or the Treated Amino Acid Sample.

lipopolysaccharide [LPS]
TNF-alpha +/- SD (mean TNF-alpha production): 2863 +/− 185.7
